For 59 compounds, solubility results are on record in patent US9868742B2, “Substituted imidazo[1,2-b]pyridazines, substituted imidazo[1,5-b] pyridazines, related compounds, and their use in the treatment of medical disorders” (Lysosomal Therapeutics Inc., priority 2016, dated 2018).

Molecules are shown by their SMILES. Converted amounts (≈) assume the structure as drawn.

The nature of the data set: Compound solubility in water. It is filed as physicochemical.
The compound `Cc1cc(-c2ccc(F)cc2)nn2c(C(=O)NC(C3CC3)C(F)(F)F)ncc12` (centres unmarked) returned a solubility of 0.2 µg/mL (≈ 0.51 µM).

Turning to `C#Cc1ccc(NC(=O)c2cnc3ccc(Cl)nn23)cc1`, the solubility came to 15 µg/mL (≈ 50.6 µM).

`Cc1cc(-c2cccnc2)nc2c(C(=O)NC(C)C3CC3)csc12` (centres unmarked) had a solubility of 1.4 µg/mL (≈ 4.15 µM).

Compound `Cc1cc(-c2cc(C)c3ncc(C(=O)N[C@H](C4CC4)C(F)(F)F)n3n2)sn1` registered a solubility of 3.6 µg/mL (≈ 9.1 µM).

In the case of `Cc1cc(-c2cccc(F)c2)nn2c(C(=O)NC(C3CC3)C(F)(F)F)cnc12` (centres unmarked), the concentration in solution (solubility) came to 0.03 µg/mL (≈ 0.0765 µM).

`Cc1cc(N2CCN(C(C)C)C2=O)nn2c(C(=O)NC(C3CC3)C(F)(F)F)cnc12` (centres unmarked) displayed a solubility of 18.3 µg/mL (≈ 43.1 µM).

Take `Cc1cc(-c2cccnc2)nc2c(C(=O)NC(C3CC3)C(F)(F)F)csc12` (centres unmarked): the concentration in solution (solubility) came to 0.5 µg/mL (≈ 1.28 µM).

For `COc1cccc(-c2cc(C)c3ncc(C(=O)NC(C4CC4)C(F)(F)F)n3n2)n1` (centres unmarked), the concentration in solution (solubility) came to 2.2 µg/mL (≈ 5.43 µM).

`Cc1cc(-c2ccc3ocnc3c2)nn2c(C(=O)NC(C)C3CC3)cnc12` (centres unmarked) returned a solubility of 1.4 µg/mL (≈ 3.87 µM).

`Cc1cc(-c2ccc(F)cc2)nn2c(C(=O)N[C@@H](C)C3CC3)nnc12` had a solubility of 1 µg/mL (≈ 2.95 µM).

For `Cc1cc(-c2cncc(Cl)c2)nn2c(C(=O)N[C@@H](C3CC3)C(F)(F)F)ncc12` [(S)-2-(5-Chloropyridin-3-yl)-N-(1-cyclopropyl-2,2,2-trifluoroethyl)-4-methylimidazo[1,5-b]pyridazine-7-carboxamide], the solubility was found to be 0.7 µg/mL (≈ 1.71 µM).

In turn, `Cc1cc(-c2ccc(F)cc2C#N)nn2c(C(=O)N[C@H](C)C3CC3)cnc12` yielded a solubility of 2.3 µg/mL (≈ 6.33 µM).

`Cc1cc(-c2cccc(C(N)=O)c2)nc2c(C(=O)NC(C3CC3)C(F)(F)F)nsc12` (centres unmarked): the solubility was 1.4 µg/mL (≈ 3.22 µM).

As to `Cc1cc(-c2cccc(F)c2C#N)nn2c(C(=O)N[C@@H](C)C(F)(F)F)cnc12` [(S)-6-(2-Cyano-3-fluorophenyl)-8-methyl-N-(1,1,1-trifluoropropan-2-yl)imidazo[1,2-b]pyridazine-3-carboxamide], the solubility was determined as 1.1 µg/mL (≈ 2.81 µM).

`Cc1cc(-c2ccc(F)cc2C#N)nn2c(C(=O)N[C@@H](C)C3CC3)cnc12` came in with a solubility of 2.6 µg/mL (≈ 7.15 µM).

Consider `Cc1cc(-c2ccccc2C#N)nn2c(C(=O)NC(C3CC3)C(F)(F)F)cnc12` (centres unmarked), for which the solubility amounted to 0.1 µg/mL (≈ 0.25 µM).

`CCC(NC(=O)c1ncc2c(C)cc(C)nn12)c1ccccc1` (centres unmarked): the solubility is 29.6 µg/mL (≈ 96 µM).

Regarding `Cc1cc(-c2ccc(F)cc2C#N)nn2c(C(=O)N[C@@H](C)C(F)(F)F)cnc12`, the solubility was found to be 1.9 µg/mL (≈ 4.86 µM).

`Cc1cc(N2CCCC(F)(F)C2)nn2c(C(=O)N[C@@H](C3CC3)C(F)(F)F)cnc12`: the concentration in solution (solubility) came to 1.9 µg/mL (≈ 4.55 µM).

Take `Cc1cc(-c2occc2C#N)nn2c(C(=O)NC(C3CC3)C(F)(F)F)cnc12` (centres unmarked): the concentration in solution (solubility) came to 0.7 µg/mL (≈ 1.8 µM).

In the case of `O=C(NC1CCCc2ccccc21)c1cnc2ccc(Cl)nn12` (centres unmarked), the solubility amounted to 17.5 µg/mL (≈ 53.7 µM).

The compound `Cc1cc(-c2ccc3ocnc3c2)nn2c(C(=O)N[C@@H](C3CC3)C(F)(F)F)cnc12` showed a solubility of 0.5 µg/mL (≈ 1.2 µM).

Consider `Cc1cc(-c2cccc(C(N)=O)c2)nc2c(C(=O)NC(C3CC3)C(F)(F)F)csc12` (centres unmarked), for which the solubility was 0.4 µg/mL (≈ 0.923 µM).

`Cc1cc(C)c2cnc(C(=O)NC3CCCc4ccccc43)n2n1` (centres unmarked) had a solubility of 38.4 µg/mL (≈ 120 µM).

`Cc1cc(-c2ccns2)nn2c(C(=O)NC(C3CC3)C(F)(F)F)cnc12` (centres unmarked): the solubility was found to be 0.5 µg/mL (≈ 1.31 µM).

The compound `Cc1cc(-c2cccc3ocnc23)nc2c(C(=O)NC(C3CC3)C(F)(F)F)nsc12` (centres unmarked) came in with a solubility of 1.1 µg/mL (≈ 2.54 µM).

Take `COc1cccc(-c2cc(C)c3ncc(C(=O)NC(C4CC4)C(F)(F)F)n3n2)c1` (centres unmarked): the solubility was 1.4 µg/mL (≈ 3.46 µM).

As for `Cc1cc(-c2ccc(F)cc2C#N)nn2c(C(=O)N[C@@H](C3CC3)C(F)(F)F)cnc12`, the solubility was 1.2 µg/mL (≈ 2.88 µM).

Compound `Cc1cc(-c2ccc(F)cc2C#N)nn2c(C(=O)NC(C)C(F)(F)F)cnc12` (centres unmarked) came in with a solubility of 3.9 µg/mL (≈ 9.97 µM).

`Cc1cc(-c2cccc3ncoc23)nn2c(C(=O)NC(C3CC3)C(F)(F)F)cnc12` (centres unmarked): the solubility was determined as 0.3 µg/mL (≈ 0.722 µM).

Compound `Cc1nc2cc(-c3cc(C)c4ncc(C(=O)NC(C)C(F)(F)F)n4n3)ccc2o1` (centres unmarked) showed a solubility of 1.5 µg/mL (≈ 3.72 µM).

Turning to `Cc1cc(C)c2ncc(C(=O)NC3CCCc4ccccc43)n2n1` (centres unmarked), the solubility was 8.8 µg/mL (≈ 27.5 µM).

For the compound `Cc1cc(-c2ccc(F)cc2)nn2c(C(=O)NC(C)(C)C3CC3)cnc12`, the solubility worked out at 0.9 µg/mL (≈ 2.55 µM).

With `C#Cc1ccc(NC(=O)c2ncc3c(C)cc(C)nn23)cc1`, the solubility was found to be 1.8 µg/mL (≈ 6.2 µM).

`CCC(NC(=O)c1cnc2ccc(Cl)nn12)c1ccccc1` (centres unmarked): the concentration in solution (solubility) was 15.4 µg/mL (≈ 49.1 µM).

In turn, `Cc1cc(C)c2ncc(C(=O)NC3(C)CCCc4ccccc43)n2n1` (centres unmarked) registered a solubility of 7.2 µg/mL (≈ 21.5 µM).

`Cc1cc(-c2cccc(F)c2C#N)nn2c(C(=O)N[C@@H](C)C3CC3)cnc12` [(S)-6-(2-Cyano-3-fluorophenyl)-N-(1-cyclopropylethyl)-8-methylimidazo[1,2-b]pyridazine-3-carboxamide] yielded a solubility of 0.5 µg/mL (≈ 1.38 µM).

As for `Cc1cc(-c2cccc3ncoc23)nn2c(C(=O)NC(C)C(F)(F)F)cnc12` (centres unmarked), the concentration in solution (solubility) came to 4.4 µg/mL (≈ 11.3 µM).

In the case of `Cc1cc(-c2cncc(Cl)c2)nn2c(C(=O)N[C@@H](C3CC3)C(F)(F)F)cnc12`, the concentration in solution (solubility) was 0.3 µg/mL (≈ 0.732 µM).

The compound `Cc1cc(C#N)c(-c2cc(C)c3ncc(C(=O)N[C@@H](C)C(F)(F)F)n3n2)o1` had a solubility of 0.1 µg/mL (≈ 0.265 µM).

Regarding `Cc1cc(-c2ccc3ocnc3c2)nn2c(C(=O)N[C@H](C)C(F)(F)F)cnc12`, the solubility was 1 µg/mL (≈ 2.57 µM).

`Cc1cc(-c2cccc(Cl)n2)nn2c(C(=O)NC(C)C(F)(F)F)cnc12` (centres unmarked) yielded a solubility of 3.5 µg/mL (≈ 9.12 µM).

As for `Cc1cc(-c2ccccn2)nc2c(C(=O)NC(C3CC3)C(F)(F)F)nsc12` (centres unmarked), the solubility was 0.7 µg/mL (≈ 1.78 µM).

`C#Cc1ccc(NC(=O)c2cnc3c(C)cc(C)nn23)cc1` displayed a solubility of 0.3 µg/mL (≈ 1.03 µM).

As to `Cc1cc(-c2ccc3ocnc3c2)nn2c(C(=O)NC(C)C(F)(F)F)cnc12` (centres unmarked), the solubility is 1.3 µg/mL (≈ 3.34 µM).

The compound `O=C(Nc1ccc2c(c1)CCC2)c1cnc2ccc(Cl)nn12` showed a solubility of 0.7 µg/mL (≈ 2.24 µM).

As to `COc1cccc(-c2cc(C)c3ncc(C(=O)NC(C4CC4)C4CC4)n3n2)c1`, the concentration in solution (solubility) came to 2.7 µg/mL (≈ 7.17 µM).

In the case of `Cc1cc(-c2cccnc2)nc2c(C(=O)NC(C3CC3)C(F)(F)F)nsc12` (centres unmarked), the concentration in solution (solubility) came to 0.3 µg/mL (≈ 0.765 µM).

Consider `Cc1cc(-c2cccc(F)c2)nn2c(C(=O)N[C@@H](C3CC3)C(F)(F)F)ncc12` [(S)—N-(1-Cyclopropyl-2,2,2-trifluoroethyl)-2-(3-fluorophenyl)-4-methylimidazo[1,5-b]pyridazine-7-carboxamide], for which the concentration in solution (solubility) was 0.2 µg/mL (≈ 0.51 µM).

`Cc1cc(C)c2ncc(C(=O)Nc3ccc(-c4cocn4)cc3)n2n1` returned a solubility of 1.8 µg/mL (≈ 5.4 µM).

As for `Cc1cc(-c2ccc(F)cc2)nn2c(C(=O)N[C@@H](C)C3CC3)cnc12`, the concentration in solution (solubility) was 6.5 µg/mL (≈ 19.2 µM).

Regarding `Cc1cc(-c2ccns2)nn2c(C(=O)NC(C)(C)C3CC3)cnc12`, the solubility came out at 6.7 µg/mL (≈ 19.6 µM).

`Cc1cc(C)c2scc(C(=O)NC(C3CC3)C(F)(F)F)c2n1` (centres unmarked) came in with a solubility of 0.1 µg/mL (≈ 0.305 µM).

With `C#CC(C)(C)NC(=O)c1cnc2c(C)cc(-c3ccns3)nn12`, the concentration in solution (solubility) was 17.2 µg/mL (≈ 52.9 µM).

Compound `CCC(NC(=O)c1cnc2c(C)cc(C)nn12)c1ccccc1` (centres unmarked) returned a solubility of 18.8 µg/mL (≈ 61 µM).

Take `Cc1cc(C)c2ncc(C(=O)NC(C)(C)C3CC3)n2n1`: the solubility was found to be 27.3 µg/mL (≈ 100 µM).

The compound `Cc1cc(-c2cccc(F)c2)nn2c(C(=O)NC(C)C(F)(F)F)ncc12` (centres unmarked) came in with a solubility of 3 µg/mL (≈ 8.19 µM).

In turn, `Cc1cc(-c2ccc(F)cc2)nn2c(C(=O)NC(C)(C)C3CC3)ncc12` registered a solubility of 1.2 µg/mL (≈ 3.41 µM).

As to `Cc1cc(C)c2cnc(C(=O)Nc3ccc(-c4cocn4)cc3)n2n1`, the solubility amounted to 0.4 µg/mL (≈ 1.2 µM).

As a reminder, the solubility is the concentration that dissolves in the medium under given conditions. Higher therefore signals much dissolved substance.
